{"source": "paper PMC11341980", "about": "“Dual TTK/PLK1 inhibition has potent anticancer activity in TNBC as monotherapy and in combination” (Frontiers in Oncology, 2024)", "key": {"MDA-MB-231 xenograft": {"system": "MDA-MB-231 xenograft", "parameters": "method as in PMID 28270606", "conditions": "daily dosing, MDA-MB-231 xenografted mice; cited from earlier work"}, "HT29 cells [1]": {"system": "HT29 cells", "assay": "Cell growth assay, GI50s used for SAC analyses", "type": "cell-based", "conditions": "Homo sapiens, HT-29; 120 h cell growth assay", "description": "Cell lines were seeded in appropriate culture medium into 96-well plates and 9 serial compound dilutions (0.004 – 1 μM) were added 24 h later for 120 h. Residual cells were stained with crystal violet or YO-PRO (Molecular Probes, #Y-3603). GI50 values were calculated by fitting the data to a sigmoidal dose–response model with a variable slope using GraphPad Prism software after subtraction of the starting control signal."}, "KT-associated BubR1": {"system": "KT-associated BubR1", "assay": "Immunofluorescence of BubR1 at kinetochores in HT29 cells", "type": "cell-based", "conditions": "nocodazole-blocked mitotic HT29 cells, 1 hour, GI50 concentration", "description": "Immunoblotting, SAC co-immunoprecipitation assays and immunofluorescence microscopy were performed using standard procedures as outlined in the Supplementary Information .\nCells were seeded on 13-mm glass coverslips in full medium and left to adhere O/N. After the appropriate treatments, cells were fixed with ice-cold 100% methanol for 5 min at -20°C and then rehydrated in PBS for 10 min. Coverslips were blocked for 30 min with 3% BSA (w/v) in PBS (BP) and then incubated with a 1:100 or 1:1000 dilution of BubR1 or CENP-C primary antibodies in BP, respectively, for 1 h in a moist environment. […] Images were projected (maximum intensity projection) using the NIS Elements AR software (Nikon) and quantification was performed using the General Analysis 2 tool. The quantification process comprised the following steps: selection of mitotic cells via intensity measurement of a threshold DAPI signal; generation of a kinetochore mask based on the intensity of bright spots (CENPC signal) inside the selected nuclei; generation of a tertiary mask for the BubR1 signal at kinetochores and BubR1 background measurements in the selected nuclei; export of reference images and signal intensities per cell."}, "[2]": {"system": "SK-OV-3 ovarian cell-derived xenograft", "assay": "SK-OV-3 xenograft combination study with carboplatin", "conditions": "carboplatin 60 mg/kg, QW, IV alone", "description": "(§1) Animal studies were performed by Charles-River Laboratories (Wilmington, Massachusetts, USA; MDA-MB-231 xenograft experiments) or Crown Biosciences Inc, (Taicang, China; SK-OV-3 xenograft and TNBC PDX screening experiments). All studies were performed in adherence with local ethical rules.\n5x10^6 MDA-MB-231 cells were injected subcutaneously (s.c.) in the flank of NCr nude mice (n=8-15/group for efficacy experiments, n=2-3/group for tumor pharmacodynamic evaluation), 1x10^7 SK-OV-3 cells were injected s.c. in the flank of Balb/c nude mice (n=8/group) and specific PDX tumor fragments (3x3x3 mm^3) were inoculated s.c. in the flank of Balb/c nude mice or NOD/SCID mice (n=4-5/group for efficacy screening and tumor pharmacodynamic experiments, n=8/group for combination experiments). Mice were randomly grouped based on a mean tumor volume (TV) of 100-200 mm^3. For dedicated pharmacodynamic studies, treatment began with TVs of ~400 mm^3. Mice were culled when individual tumors exceeded 1500 mm^3 or if the body-weight loss (BWL) was >15% for 3 consecutive days or reached 20%. Dosing holidays were given to allow recovery for BWL >10%. When the endpoint was reached, mice were culled and plasma and tissue samples obtained. Samples were snap frozen and stored at -80 °C. In some cases, tumors were formalin-fixed and paraffin-embedded (FFPE) following standard procedures. […]"}, "BR1282 TNBC PDX [3]": {"system": "BR1282 TNBC PDX", "assay": "BR1282 PDX combination with carboplatin", "type": "in vivo, mice", "conditions": "carboplatin 60 mg/kg, IV, QW", "description": "Samples were snap frozen and stored at -80 °C. […] Carboplatin was prepared in 5% glucose in pure water."}, "BR1282 TNBC PDX [4]": {"system": "BR1282 TNBC PDX", "conditions": "paclitaxel 15 mg/kg, QW, IV alone", "description": "as §1\n5x10^6 MDA-MB-231 cells were injected subcutaneously (s.c.) in the flank of NCr nude mice (n=8-15/group for efficacy experiments, n=2-3/group for tumor pharmacodynamic evaluation), 1x10^7 SK-OV-3 cells were injected s.c. in the flank of Balb/c nude mice (n=8/group) and specific PDX tumor fragments (3x3x3 mm^3) were inoculated s.c. in the flank of Balb/c nude mice or NOD/SCID mice (n=4-5/group for efficacy screening and tumor pharmacodynamic experiments, n=8/group for combination experiments). Mice were randomly grouped based on a mean tumor volume (TV) of 100-200 mm^3. For dedicated pharmacodynamic studies, treatment began with TVs of ~400 mm^3. Mice were culled when individual tumors exceeded 1500 mm^3 or if the body-weight loss (BWL) was >15% for 3 consecutive days or reached 20%. Dosing holidays were given to allow recovery for BWL >10%. When the endpoint was reached, mice were culled and plasma and tissue samples obtained. Samples were snap frozen and stored at -80 °C. In some cases, tumors were formalin-fixed and paraffin-embedded (FFPE) following standard procedures. […] Paclitaxel (6 mg/mL) was prepared using the clinical formulation (Cremophor-EL) and diluted in 0.9% saline just prior to use. Carboplatin was prepared in 5% glucose in pure water. Dosing and combination regimens for each specific experiment are outlined in the text.\nBW is presented as the % ΔBW and as the fractional-change (endpoint/treatment-start) for each group. As an assessment of synergy, the Clarke-Combination-Index (CCI) was applied ([32]) where a CCI of <-0.1 was considered synergistic, >+0.1 antagonistic, and in-between, additive.\nPaclitaxel (15 mg/kg) was administered IV QW to BR1282 PDX-bearing mice. […]"}, "HT29 cells [5]": {"system": "HT29 cells", "assay": "Flow cytometry cell cycle analysis", "type": "cell-based", "conditions": "nocodazole treatment", "description": "Cells were fixed in 70% high grade ethanol, washed in PBS, incubated in propidium iodide (PI) solution (50 μg/mL PI and 0.5 mg/mL RNAse A, Sigma-Aldrich, in PBS) for 30 min and analyzed using a BD FACSCanto II flow cytometer (BD Biosciences)."}}, "note": "Marks after values point to notes of the source that are not given here."}
{"smiles": "Cc1cc(-c2cnn3c(NC[C@H]4C[C@@](C)(O)C4)cc(Oc4cccnc4)nc23)ccc1C(=O)NC1CC1", "note": "[CFI-402257]", "values": [{"measurement": "maximum tumor growth inhibition", "setting": "MDA-MB-231 xenograft", "value": 89, "unit": "%"}, {"measurement": "GI50", "setting": "HT29 cells [1]", "value": "31 to 38", "unit": "nM"}, {"measurement": "reduction in KT-associated BubR1", "setting": "KT-associated BubR1", "value": "Some reduction"}]}
{"smiles": "N.N.O=C([O-])C1(C(=O)[O-])CCC1.[Pt+2]", "note": "[Carboplatin]", "values": [{"measurement": "Efficacy ΔT/C (day 23)", "setting": "[2]", "value": 0.72}, {"measurement": "Tolerability ΔT/C (day 23)", "setting": "[2]; body weight", "value": 0.97}, {"measurement": "antitumor activity of monotherapy", "setting": "BR1282 TNBC PDX [3]", "value": "without activity"}]}
{"smiles": "CC(=O)O[C@H]1C(=O)[C@@]2(C)[C@H]([C@H](OC(=O)c3ccccc3)[C@]3(O)C[C@H](OC(=O)[C@H](O)[C@@H](NC(=O)c4ccccc4)c4ccccc4)C(C)=C1C3(C)C)[C@]1(OC(C)=O)CO[C@@H]1C[C@@H]2O", "note": "[Paclitaxel]", "values": [{"measurement": "Efficacy ΔT/C (day 16)", "setting": "BR1282 TNBC PDX [4]; Study 1", "value": 0.24}, {"measurement": "Regressions (%) (end of treatment day)", "setting": "BR1282 TNBC PDX [4]; Study 1, day 37, regressions in 1/8 mice", "value": "30 (37)* %"}, {"measurement": "Efficacy ΔT/C (day 13)", "setting": "BR1282 TNBC PDX [4]; Study 2", "value": 0.48}]}
{"smiles": "COC(=O)Nc1nc2ccc(C(=O)c3cccs3)cc2[nH]1", "note": "[nocodazole]", "values": [{"measurement": "accumulation in G2/M of the cell cycle", "setting": "HT29 cells [5]", "value": 67, "unit": "%"}]}
{"smiles": "CN1CCN(c2ccc(OC(F)(F)F)c(Nc3ncc4c(n3)-c3c(c(C(N)=O)nn3CCO)CC4)c2)CC1", "note": "[onvansertib]", "values": [{"measurement": "GI50", "setting": "HT29 cells [1]", "value": 14, "unit": "nM"}, {"measurement": "reduction in KT-associated BubR1", "setting": "KT-associated BubR1", "value": "minor effects"}]}
